Reference: patent publication US20120121540A1 (priority 2007, published 2012)

Assay: HCV replicon assay (luciferase reporter, ET cell line)
Type: cell-based
Conditions: Hepatitis C virus, HCV replicon luciferase activity in ET cells
Procedure, shortened: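 ET cells carry a stable luciferase-ubiquitin-neo/NS3-5B subgenomic HCV replicon with adaptive mutations. Compounds (0.1 nM to […], 0.5% DMSO) were added 24 h after plating, and luciferase was read 48-72 h later. EC50 came from 10-point 2-fold dilutions fitted to a Hill equation; TC50 was measured in parallel by WST-1.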

| Structure (SMILES) | inhibition at 10 µM [%] |
| --- | --- |
| O=C(NCc1ccccc1OC(F)(F)F)c1nc2c(C(F)(F)F)cc(-c3ccco3)cn2c1Cl [Compound 202, 3-Chloro-6-furan-2-yl-8-trifluoromethyl-imidazo[1,2-a]pyridine-2-carboxylic acid 2-trifluoromethoxy-benzylamide] | 78.1 |
| O=C(NCc1cccc(OC(F)(F)F)c1)c1nc2c(C(F)(F)F)cc(-c3ccco3)cn2c1Cl [Compound 203, 3-Chloro-6-furan-2-yl-8-trifluoromethyl-imidazo[1,2-a]pyridine-2-carboxylic acid 3-trifluoromethoxy-benzylamide] | 47.5 |
| O=C(NCc1ccc(OC(F)(F)F)cc1)c1nc2c(C(F)(F)F)cc(-c3ccco3)cn2c1Cl [Compound 204, 3-Chloro-6-furan-2-yl-8-trifluoromethyl-imidazo[1,2-a]pyridine-2-carboxylic acid 4-trifluoromethoxy-benzylamide] | 31.7 |
| O=C(NCc1cccs1)c1nc2c(C(F)(F)F)cc(-c3ccncc3)cn2c1Cl [Compound 207, 3-Chloro-6-pyridin-4-yl-8-trifluoromethy-imidazo[1,2-a]pyridine-2-carboxylic acid (thiophen-2-ylmethyl)-amide] | 85.7 |
| O=C(NCc1cccs1)c1nc2c(C(F)(F)F)cc(-c3cccnc3)cn2c1Cl [Compound 208, 3-Chloro-6-pyridin-3-yl-8-trifluoromethyl-imidazo[1,2-a]pyridine-2-carboxylic acid (thiophen-2-ylmethyl)-amide] | 88.5 |
| Cc1cscc1-c1cc(C(F)(F)F)c2nc(C(=O)NCc3cccs3)c(Cl)n2c1 [Compound 209, 3-Chloro-6-(4-methyl-thiophen-3-yl)-8-trifluoromethyl-imidazo[1,2-a]pyridine-2-carboxylic acid (thiophen-2-ylmethyl)-amide] | 83.4 |
| O=C(Nc1ccccc1)Nc1nc2c(C(F)(F)F)cc(-c3ccco3)cn2c1Cl [Compound 211, 1-(3-Chloro-6-furan-2-yl-8-trifluoromethyl-imidazo[1,2-a]pyridin-2-yl)-3-phenyl-urea] | 51.8 |
| O=C(NCc1ccc(N2CCOCC2)cc1)c1nc2c(C(F)(F)F)cc(-c3ccco3)cn2c1Cl [Compound 212, 3-Chloro-6-furan-2-yl-8-trifluoromethyl-imidazo[1,2-a]pyridine-2-carboxylic Acid 4-morpholin-4-yl-benzylamide] | 56.7 |
| O=C(NCc1cccc(N2CCOCC2)c1)c1nc2c(C(F)(F)F)cc(-c3ccco3)cn2c1Cl [Compound 213, 3-Chloro-6-furan-2-yl-8-trifluoromethyl-imidazo[1,2-a]pyridine-2-carboxylic Acid 3-morpholin-4-yl-benzylamide] | 2.7 |
| CN(C)CCOc1ccc(CNC(=O)c2nc3c(C(F)(F)F)cc(-c4ccco4)cn3c2Cl)cc1 [Compound 214, 3-Chloro-6-furan-2-yl-8-trifluoromethyl-imidazo[1,2-a]pyridine-2-carboxylic Acid 4-(2-dimethylamino-ethoxy)-benzylamide] | 49 |
| CN(C)CCOc1ccccc1CNC(=O)c1nc2c(C(F)(F)F)cc(-c3ccco3)cn2c1Cl [Compound 215, 3-Chloro-6-furan-2-yl-8-trifluoromethyl-imidazo[1,2-a]pyridine-2-carboxylic Acid 2-(2-dimethylamino-ethoxy)-benzylamide] | 49 |
| O=C(c1nc2c(C(F)(F)F)cc(-c3ccco3)cn2c1Cl)N1CCCC(c2ccccc2)C1 (stereo not shown) [Compound 216, (3-Chloro-6-furan-2-yl-8-trifluoromethyl-imidazo[1,2-a]pyridin-2-yl)-(3-phenyl-piperidin-1-yl)-methanone] | 60.3 |
| O=C(c1nc2c(C(F)(F)F)cc(-c3ccco3)cn2c1Cl)N1Cc2cccnc2C1 [Compound 217, (3-Chloro-6-furan-2-yl-8-trifluoromethyl-imidazo[1,2-a]pyridin-2-yl)-(5,7-dihydro-pyrrolo[3,4-b]pyridin-6-yl)-methanone] | 38.8 |
| O=C(c1nc2c(C(F)(F)F)cc(-c3ccco3)cn2c1Cl)N1CCC(c2ccccc2)CC1 [Compound 218, (3-Chloro-6-furan-2-yl-8-trifluoromethyl-imidazo[1,2-a]pyridin-2-yl)-(4-phenyl-piperidin-1-yl)-methanone] | 63.5 |
| O=C(NCc1ccc(-c2ccccn2)s1)c1nc2c(C(F)(F)F)cc(-c3ccco3)cn2c1Cl [Compound 219, 3-Chloro-6-furan-2-yl-8-trifluoromethyl-imidazo[1,2-a]pyridine-2-carboxylic Acid (5-pyridin-2-yl-thiophen-2-ylmethyl)-amide] | 25.4 |
| COC(=O)Cc1c(C(=O)NCc2cccs2)nc2c(C(F)(F)F)cc(-c3ccoc3)cn12 [Compound 222, {6-Furan-3-yl-2-[(thiophen-2-ylmethyl)-carbamoyl]-8-trifluoromethyl-imidazo[1,2-a]pyridin-3-yl}-acetic Acid Methyl Ester] | 66.1 |

| Structure (SMILES) | inhibition at 10 µM [%] |
| --- | --- |
| O=C(O)Cc1c(C(=O)NCc2cccs2)nc2c(C(F)(F)F)cc(-c3ccoc3)cn12 [Compound 226, {6-Furan-3-yl-2-[(thiophen-2-ylmethyl)-carbamoyl]-8-trifluoromethyl-imidazo[1,2-a]pyridin-3-yl}-acetic Acid] | 98.8 |
| O=C(NCc1cccs1)c1nc2c(C(F)(F)F)cc(-c3ccoc3)cn2c1[N+](=O)[O-] [Compound 232, 6-Furan-3-yl-3-nitro-8-trifluoromethyl-imidazo[1,2-a]pyridine-2-carboxylic Acid (thiophen-2-ylmethyl)-amide] | 56.6 |
| O=C(c1nc2c(C(F)(F)F)cc(-c3ccoc3)cn2c1Cl)N1CCC(c2ccc(F)cc2)C1 (stereo not shown) [Compound 233, (3-Chloro-6-furan-3-yl-8-trifluoromethyl-imidazo[1,2-a]pyridin-2-yl)-[3-(4-fluoro-phenyl)-pyrrolidin-1-yl]-methanone] | 90.6 |
| O=C(c1nc2c(C(F)(F)F)cc(-c3cccc(F)c3)cn2c1Cl)N1CCC(c2ccc(F)cc2)C1 (stereo not shown) [Compound 234, [3-Chloro-6-(3-fluoro-phenyl)-8-trifluoromethyl-imidazo[1,2-a]pyridin-2-yl]-[3-(4-fluoro-phenyl)-pyrrolidin-1-yl]-methanone] | 81.8 |
| COC(=O)Cc1c(C(=O)N2CCC(c3ccc(F)cc3)C2)nc2c(C(F)(F)F)cc(-c3ccoc3)cn12 (stereo not shown) [Compound 235, {2-[3-(4-Fluoro-phenyl)-pyrrolidine-1-carbonyl]-6-furan-3-yl-8-trifluoromethyl-imidazo[1,2-a]pyridin-3-yl}-acetic Acid Methyl Ester] | 96.6 |
| O=C(O)Cc1c(C(=O)N2CCC(c3ccc(F)cc3)C2)nc2c(C(F)(F)F)cc(-c3ccoc3)cn12 (stereo not shown) [Compound 236, {2-[3-(4-Fluoro-phenyl)-pyrrolidine-1-carbonyl]-6-furan-3-yl-8-trifluoromethyl-imidazo[1,2-a]pyridin-3-yl}-acetic Acid] | 49 |
| O=C(c1nc2c(C(F)(F)F)cc(-c3cn[nH]c3)cn2c1Cl)N1CCC(c2ccc(F)cc2)C1 (stereo not shown) [Compound 238, [3-Chloro-6-(1H-pyrazol-4-yl)-8-trifluoromethyl-imidazo[1,2-a]pyridin-2-yl]-[3-(4-fluoro-phenyl)-pyrrolidin-1-yl]-methanone] | 86.9 |
| NC(=O)Cc1c(C(=O)N2CCC(c3ccc(F)cc3)C2)nc2c(C(F)(F)F)cc(-c3ccoc3)cn12 (stereo not shown) [Compound 239, 2-{2-[3-(4-Fluoro-phenyl)-pyrrolidine-1-carbonyl]-6-furan-3-yl-8-trifluoromethyl-imidazo[1,2-a]pyridin-3-yl}-acetamide] | 53 |
| O=C(Cc1c(C(=O)N2CCC(c3ccc(F)cc3)C2)nc2c(C(F)(F)F)cc(-c3ccoc3)cn12)NCc1ccccc1 (stereo not shown) [Compound 240, N-Benzyl-2-{2-[3-(4-fluoro-phenyl)-pyrrolidine-1-carbonyl]-6-furan-3-yl-8-trifluoromethyl-imidazo[1,2-a]pyridin-3-yl}-acetamide] | 33.4 |
| CN(C)CCNC(=O)Cc1c(C(=O)N2CCC(c3ccc(F)cc3)C2)nc2c(C(F)(F)F)cc(-c3ccoc3)cn12 (stereo not shown) [Compound 241, N-(2-Dimethylamino-ethyl)-2-{2-[3-(4-fluoro-phenyl)-pyrrolidine-1-carbonyl]-6-furan-3-yl-8-trifluoromethyl-imidazo[1,2-a]pyridin-3-yl}-acetamide] | 100 |
| O=C(Cc1c(C(=O)N2CCC(c3ccc(F)cc3)C2)nc2c(C(F)(F)F)cc(-c3ccoc3)cn12)NC1CC1 (stereo not shown) [Compound 242, N-Cyclopropyl-2-{2-[3-(4-fluoro-phenyl)-pyrrolidine-1-carbonyl]-6-furan-3-yl-8-trifluoromethyl-imidazo[1,2-a]pyridin-3-yl}-acetamide] | 93 |
| Cc1noc(Cc2c(C(=O)N3CCC(c4ccc(F)cc4)C3)nc3c(C(F)(F)F)cc(-c4ccoc4)cn23)n1 (stereo not shown) [Compound 243, [3-(4-Fluoro-phenyl)-pyrrolidin-1-yl]-[6-furan-3-yl-3-(3-methyl-[1,2,4]oxadiazol-5-ylmethyl)-8-trifluoromethyl-imidazo[1,2-a]pyridin-2-yl]-methanone] | 86.2 |
| CNC(=O)Cc1c(C(=O)N2CCC(c3ccc(F)cc3)C2)nc2c(C(F)(F)F)cc(-c3ccoc3)cn12 (stereo not shown) [Compound 245, 2-{2-[3-(4-Fluoro-phenyl)-pyrrolidine-1-carbonyl]-6-furan-3-yl-8-trifluoromethyl-imidazo[1,2-a]pyridin-3-yl}-N-methyl-acetamide] | 63.9 |
| O=C(NCc1cccs1)c1cn2nc(-c3ccccc3)cc(C(F)(F)F)c2n1 [Compound 248, 6-Phenyl-8-trifluoromethyl-imidazo[1,2-b]pyridazine-2-carboxylic Acid (thiophen-2-ylmethyl)-amide] | 45.8 |
| O=C(NCc1cccs1)c1nc2c(C(F)(F)F)cc(-c3ccccc3)nn2c1Cl [Compound 249, 3-Chloro-6-phenyl-8-trifluoromethyl-imidazo[1,2-b]pyridazine-2-carboxylic Acid(thiophen-2-ylmethyl)-amide] | 81.4 |
